Data as given in patent publication US10780084B2, “Antibody-recruiting molecules for the treatment of cancer” (YALE UNIVERSITY, priority 2016, dated 2020).

Biological target: T1, recombinant uPAR (Homo sapiens, UniProt Q03405)
T1 construct: purchased R&D systems
Assay: Competitive ELISA uPAR binding assay (displacement of uPAR from immobilized urokinase)
Settings: for IC50 / Ki: ELISA assay, competition with urokinase for recombinant uPAR; for Ratio of IC50 (Compound)/IC50 6-ABT-1: relative to control 6-ABT-1
Procedure: The affinity of derivatives are assayed using a competitive ELISA binding assay. The assay involves the immobilization of urokinase, a natural high affinity ligand for uPAR followed by the addition of a fixed concentration of recombinant uPAR protein and increasing concentrations of test compounds which competes with urokinase for binding to the uPA binding site of uPAR. Following several washing steps, the amount of uPAR bound is quantified by a biotinylated anti-uPAR antibody and avidin-HRP and can be fit to a competitive binding model allowing for determination of the uPAR/test compound Kd.
All derivatives were assessed for their ability to hind selectively to recombinant uPAR in vitro using a competitive ELISA binding assay. DMSO stock solutions of each derivative stored at −20° C. were titrated into wells pre-coated with human urokinase (isolated from human urine, ProSpec 1 mg/mL deionized water 18.5 μM) in the presence of uPAR. Selective binding to uPAR by compounds at the uPA binding site competes with uPAR-uPA binding which is required for a positive UV 450 nm absorbance signal. Increasing concentrations of test compound displace increasing amounts of uPAR from uPA which is detected by anti-uPAR/biotin labeled antibodies followed by avidin-HRP.
ELISA assay substantially as described above was used to test certain of the compounds of the present invention for biological characteristics. In addition, the compound 6-ABT-1 as described in WO2017/023994 was tested as a control.

T1 sequence (Q03405 23-305): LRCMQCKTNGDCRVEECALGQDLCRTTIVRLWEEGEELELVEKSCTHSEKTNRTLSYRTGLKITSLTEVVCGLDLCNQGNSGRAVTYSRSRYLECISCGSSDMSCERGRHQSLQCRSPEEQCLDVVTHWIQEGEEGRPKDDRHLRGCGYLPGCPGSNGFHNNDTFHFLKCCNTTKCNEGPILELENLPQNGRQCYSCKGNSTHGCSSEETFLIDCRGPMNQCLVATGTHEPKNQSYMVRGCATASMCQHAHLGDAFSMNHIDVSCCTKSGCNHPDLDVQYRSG

Row | SMILES | IC50 [µM] | Ki [nM] | Ratio of IC50 (Compound)/IC50 6-ABT-1
1 | O=C1c2ccccc2-c2onc3c(N4CCC(C(=O)NCCCOCCOCCOCCCNc5ccc([N+](=O)[O-])cc5[N+](=O)[O-])CC4)cc(Nc4ccc(S(=O)(=O)O)cc4S(=O)(=O)O)c1c23 [ARM-U2 derivative 6-ABT-5] | 0.544 | 11 | 0.7
2 | O=C1c2ccccc2-c2onc3c(N4CCC(C(=O)NCCCOCCOCCOCCCNc5ccc([N+](=O)[O-])cc5[N+](=O)[O-])CC4)cc(Nc4ccc(S(=O)(=O)O)cc4)c1c23 [ARM-U2 derivative 7-ABT-5] | 2.36 | 48.4 | 1.15
3 | COc1ccc(Nc2cc(N3CCC(C(=O)NCCCOCCOCCOCCCNc4ccc([N+](=O)[O-])cc4[N+](=O)[O-])CC3)c3noc4c3c2C(=O)c2ccccc2-4)c(S(=O)(=O)O)c1 [ARM-U2 derivative 8-ABT-5] | 0.54 | 11 | 0.28
4 | O=C1c2ccccc2-c2onc3c(N4CCC(C(=O)NCCCOCCOCCOCCCNc5ccc([N+](=O)[O-])cc5[N+](=O)[O-])CC4)cc(Nc4ccc(Cl)cc4S(=O)(=O)O)c1c23 [ARM-U2 derivative 9-ABT-5] | 0.485 | 9.84 | 0.255
5 | COC(=O)c1ccc(Nc2cc(N3CCC(C(=O)NCCCOCCOCCOCCCNc4ccc([N+](=O)[O-])cc4[N+](=O)[O-])CC3)c3noc4c3c2C(=O)c2ccccc2-4)cc1 [ARM-U2 derivative 10-ABT-5] | > 100 | > 2000 | 71.4
6 | COC(=O)c1ccc(Nc2cc(N3CCC(C(=O)NCCCOCCOCCOCCCNc4ccc([N+](=O)[O-])cc4[N+](=O)[O-])CC3)c3noc4c3c2C(=O)c2ccccc2-4)c(C(=O)OC)c1 [ARM-U2 derivative 11-ABT-5] | > 100 | > 2000 | >56
7 | COC(=O)c1ccc(Nc2cc(N3CCC(C(=O)NCCCOCCOCCOCCCNc4ccc([N+](=O)[O-])cc4[N+](=O)[O-])CC3)c3noc4c3c2C(=O)c2ccccc2-4)c(Cl)c1 [ARM-U2 derivative 12-ABT-5] | > 100 | > 2000 | 71.4

Second part, the molecule after the results:

Row | IC50 [µM] | Ki [nM] | Ratio of IC50 (Compound)/IC50 6-ABT-1 | SMILES
8 | > 100 | > 2000 | 71.4 | COC(=O)c1cc(Nc2cc(N3CCC(C(=O)NCCCOCCOCCOCCCNc4ccc([N+](=O)[O-])cc4[N+](=O)[O-])CC3)c3noc4c3c2C(=O)c2ccccc2-4)nn1C [ARM-U2 derivative 13-ABT-5]
9 | > 100 | > 2000 | 71.4 | NS(=O)(=O)c1ccc(Nc2cc(N3CCC(C(=O)NCCCOCCOCCOCCCNc4ccc([N+](=O)[O-])cc4[N+](=O)[O-])CC3)c3noc4c3c2C(=O)c2ccccc2-4)cc1 [ARM-U2 derivative 14-ABT-5]
10 | 18 | 371 | 12.85 | O=C1c2ccccc2-c2onc3c(N4CCC(C(=O)NCCCOCCOCCOCCCNc5ccc([N+](=O)[O-])cc5[N+](=O)[O-])CC4)cc(Nc4cc(C5CC5)no4)c1c23 [ARM-U2 derivative 15-ABT-5]
11 | 55.2 | 1140 | 39.41 | CCOC(=O)c1cn(C)nc1Nc1cc(N2CCC(C(=O)NCCCOCCOCCOCCCNc3ccc([N+](=O)[O-])cc3[N+](=O)[O-])CC2)c2noc3c2c1C(=O)c1ccccc1-3 [ARM-U2 derivative 16-ABT-5]
12 | > 100 | > 2000 | >31 | COC(=O)c1cc(OC)ccc1Nc1cc(N2CCC(C(=O)NCCCOCCOCCOCCCNc3ccc([N+](=O)[O-])cc3[N+](=O)[O-])CC2)c2noc3c2c1C(=O)c1ccccc1-3 [ARM-U2 derivative 17-ABT-5]
13 | 3.09 | 63.5 | 0.98 | O=C(O)c1cc(Cl)ccc1Nc1cc(N2CCC(C(=O)NCCCOCCOCCOCCCNc3ccc([N+](=O)[O-])cc3[N+](=O)[O-])CC2)c2noc3c2c1C(=O)c1ccccc1-3 [ARM-U2 derivative 18-ABT-5]
14 | 2.57 | 52.7 | 0.81 | O=C1c2ccccc2-c2onc3c(N4CCC(C(=O)NCCCOCCOCCOCCCNc5ccc([N+](=O)[O-])cc5[N+](=O)[O-])CC4)cc(Nc4cc(S(=O)(=O)O)ccc4S(=O)(=O)O)c1c23 [ARM-U2 derivative 19-ABT-5]
